# Laboratory results from PubChem BioAssay (NCI).
#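 Where inhibition never reached the appropriate level, the endpoint shown equals the highest concentration tested. Otherwise, values were interpolated linearly from a five-concentration, 48-hour dose response in 96-well plates. At the GI50, growth is halved. TGI denotes the concentration required for complete inhibition of growth.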
# Legend:
# Assay in all cases: NCI anticancer screen, dose series, 48 h
# SK-OV-3 ovarian = test system: SK-OV-3 ovarian
# BT-549 breast = test system: BT-549 breast
# SR leukemia = test system: SR leukemia
# NCI/ADR-RES ovarian = test system: NCI/ADR-RES ovarian
# A549 NSCLC = test system: A549 NSCLC
# NCI-H460 lung = test system: NCI-H460 lung
# RXF 393 renal = test system: RXF 393 renal
# UACC-257 melanoma = test system: UACC-257 melanoma
# DU-145 prostate = test system: DU-145 prostate
# OVCAR-5 ovarian = test system: OVCAR-5 ovarian
# K-562 leukemia = test system: K-562 leukemia
# SNB-75 CNS = test system: SNB-75 CNS
# HCT-116 colon = test system: HCT-116 colon
# NCI-H23 lung = test system: NCI-H23 lung
# SN12C renal = test system: SN12C renal
# NCI-H522 lung = test system: NCI-H522 lung
# SF-539 CNS = test system: SF-539 CNS
# SK-MEL-5 melanoma = test system: SK-MEL-5 melanoma
# OVCAR-8 ovarian = test system: OVCAR-8 ovarian
# UACC-62 melanoma = test system: UACC-62 melanoma
# SF-295 CNS = test system: SF-295 CNS
# UO-31 renal = test system: UO-31 renal
# MDA-MB-231 breast = test system: MDA-MB-231 breast
# SK-MEL-28 melanoma = test system: SK-MEL-28 melanoma
# CCRF-CEM leukemia = test system: CCRF-CEM leukemia
# HOP-92 NSCLC = test system: HOP-92 NSCLC
# A498 renal = test system: A498 renal
# HOP-62 NSCLC = test system: HOP-62 NSCLC
# U251 CNS = test system: U251 CNS
# SK-MEL-2 melanoma = test system: SK-MEL-2 melanoma
# CAKI-1 renal = test system: CAKI-1 renal
# OVCAR-4 ovarian = test system: OVCAR-4 ovarian
# MCF7 breast = test system: MCF7 breast
# PC-3 prostate = test system: PC-3 prostate
# HCC-2998 colon = test system: HCC-2998 colon
# KM12 colon = test system: KM12 colon
# SNB-19 CNS = test system: SNB-19 CNS
# ACHN renal = test system: ACHN renal
# T-47D breast = test system: T-47D breast
# OVCAR-3 ovarian = test system: OVCAR-3 ovarian
# TK-10 renal = test system: TK-10 renal
# 786-0 renal = test system: 786-0 renal
# NCI-H226 lung = test system: NCI-H226 lung
# RPMI-8226 leukemia = test system: RPMI-8226 leukemia
# EKVX NSCLC = test system: EKVX NSCLC
# LOX IMVI melanoma = test system: LOX IMVI melanoma
# HS 578T breast = test system: HS 578T breast
# COLO 205 colon = test system: COLO 205 colon
# MOLT-4 leukemia = test system: MOLT-4 leukemia
# SW-620 colon = test system: SW-620 colon
# HCT-15 colon = test system: HCT-15 colon
# IGROV1 ovarian = test system: IGROV1 ovarian
# HT29 colon = test system: HT29 colon
# MALME-3M melanoma = test system: MALME-3M melanoma
# MDA-MB-435 = test system: MDA-MB-435
# SF-268 CNS = test system: SF-268 CNS
# HL-60(TB) leukemia = test system: HL-60(TB) leukemia
# M14 melanoma = test system: M14 melanoma
smiles,measurement,setting,value
COC1=CC(c2ccc[nH]2)=N/C1=C\c1[nH]c(C)c(C(=O)Oc2ccccc2)c1C,GI50,SK-OV-3 ovarian,1680 nM
same,TGI,SK-OV-3 ovarian,7350 nM
same,GI50,BT-549 breast,384 nM
same,TGI,BT-549 breast,4200 nM
same,GI50,SR leukemia,200 nM
same,TGI,SR leukemia,1110 nM
same,GI50,NCI/ADR-RES ovarian,185 nM
same,TGI,NCI/ADR-RES ovarian,1460 nM
same,GI50,A549 NSCLC,344 nM
same,TGI,A549 NSCLC,2010 nM
same,GI50,NCI-H460 lung,77 nM
same,TGI,NCI-H460 lung,1400 nM
same,GI50,RXF 393 renal,267 nM
same,TGI,RXF 393 renal,1780 nM
same,GI50,UACC-257 melanoma,545 nM
same,TGI,UACC-257 melanoma,2410 nM
same,GI50,DU-145 prostate,295 nM
same,TGI,DU-145 prostate,> 100000 nM
same,GI50,OVCAR-5 ovarian,389 nM
same,TGI,OVCAR-5 ovarian,1990 nM
same,GI50,K-562 leukemia,292 nM
same,TGI,K-562 leukemia,> 100000 nM
same,GI50,SNB-75 CNS,274 nM
same,GI50,HCT-116 colon,42.7 nM
same,TGI,HCT-116 colon,1170 nM
same,GI50,NCI-H23 lung,227 nM
same,TGI,NCI-H23 lung,1950 nM
same,GI50,SN12C renal,387 nM
same,TGI,SN12C renal,2410 nM
same,GI50,NCI-H522 lung,227 nM
same,TGI,NCI-H522 lung,979 nM
same,GI50,SF-539 CNS,360 nM
same,TGI,SF-539 CNS,1630 nM
same,GI50,SK-MEL-5 melanoma,92.9 nM
same,TGI,SK-MEL-5 melanoma,269 nM
same,GI50,OVCAR-8 ovarian,288 nM
same,TGI,OVCAR-8 ovarian,1450 nM
same,GI50,UACC-62 melanoma,198 nM
same,TGI,UACC-62 melanoma,427 nM
same,GI50,SF-295 CNS,329 nM
same,TGI,SF-295 CNS,1950 nM
same,GI50,UO-31 renal,150 nM
same,TGI,UO-31 renal,350 nM
same,GI50,MDA-MB-231 breast,79.5 nM
same,TGI,MDA-MB-231 breast,457 nM
same,GI50,SK-MEL-28 melanoma,595 nM
same,TGI,SK-MEL-28 melanoma,1990 nM
same,GI50,CCRF-CEM leukemia,62.5 nM
same,TGI,CCRF-CEM leukemia,> 100000 nM
same,GI50,HOP-92 NSCLC,189 nM
same,TGI,HOP-92 NSCLC,564 nM
same,GI50,A498 renal,648 nM
same,TGI,A498 renal,2560 nM
same,GI50,HOP-62 NSCLC,710 nM
same,TGI,HOP-62 NSCLC,3860 nM
same,GI50,U251 CNS,148 nM
same,TGI,U251 CNS,1600 nM
same,GI50,SK-MEL-2 melanoma,194 nM
same,TGI,SK-MEL-2 melanoma,479 nM
same,GI50,CAKI-1 renal,67.9 nM
same,GI50,OVCAR-4 ovarian,236 nM
same,GI50,MCF7 breast,272 nM
same,TGI,MCF7 breast,1490 nM
same,GI50,PC-3 prostate,117 nM
same,TGI,PC-3 prostate,> 100000 nM
same,GI50,HCC-2998 colon,243 nM
same,TGI,HCC-2998 colon,1420 nM
same,GI50,KM12 colon,118 nM
same,TGI,KM12 colon,1690 nM
same,GI50,SNB-19 CNS,1290 nM
same,TGI,SNB-19 CNS,> 100000 nM
same,GI50,ACHN renal,230 nM
same,TGI,ACHN renal,1170 nM
same,GI50,T-47D breast,403 nM
same,TGI,T-47D breast,1800 nM
same,GI50,OVCAR-3 ovarian,212 nM
same,TGI,OVCAR-3 ovarian,1180 nM
same,GI50,TK-10 renal,336 nM
same,TGI,TK-10 renal,2550 nM
same,GI50,786-0 renal,313 nM
same,TGI,786-0 renal,1640 nM
same,GI50,NCI-H226 lung,438 nM
same,TGI,NCI-H226 lung,1960 nM
same,GI50,RPMI-8226 leukemia,284 nM
same,TGI,RPMI-8226 leukemia,2020 nM
same,GI50,EKVX NSCLC,164 nM
same,TGI,EKVX NSCLC,2970 nM
same,GI50,LOX IMVI melanoma,19.7 nM
same,TGI,LOX IMVI melanoma,47.2 nM
same,GI50,HS 578T breast,205 nM
same,TGI,HS 578T breast,828 nM
same,GI50,COLO 205 colon,345 nM
same,TGI,COLO 205 colon,1430 nM
O=c1ccn(Cc2ccccc2CCl)c(=O)[nH]1,TGI,MOLT-4 leukemia,> 100000 nM
same,TGI,SW-620 colon,> 100000 nM
same,TGI,SK-OV-3 ovarian,> 100000 nM
same,TGI,SR leukemia,73400 nM
same,TGI,HCT-15 colon,35800 nM
same,TGI,NCI/ADR-RES ovarian,44400 nM
same,TGI,A549 NSCLC,> 100000 nM
same,TGI,NCI-H460 lung,> 100000 nM
same,TGI,IGROV1 ovarian,55300 nM
same,TGI,RXF 393 renal,53500 nM
same,TGI,UACC-257 melanoma,98800 nM
same,TGI,DU-145 prostate,> 100000 nM
same,TGI,OVCAR-5 ovarian,37400 nM
same,TGI,K-562 leukemia,> 100000 nM
same,TGI,SNB-75 CNS,> 100000 nM
same,TGI,HCT-116 colon,46000 nM
same,TGI,HT29 colon,68600 nM
same,TGI,NCI-H23 lung,40100 nM
same,TGI,SN12C renal,59400 nM
same,TGI,NCI-H522 lung,43900 nM
same,TGI,SF-539 CNS,52700 nM
same,TGI,SK-MEL-5 melanoma,23300 nM
same,TGI,OVCAR-8 ovarian,55800 nM
same,TGI,UACC-62 melanoma,63400 nM
same,TGI,SF-295 CNS,64100 nM
same,TGI,MALME-3M melanoma,40600 nM
same,TGI,UO-31 renal,77300 nM
same,TGI,SK-MEL-28 melanoma,> 100000 nM
same,TGI,CCRF-CEM leukemia,> 100000 nM
same,TGI,MDA-MB-435,96500 nM
same,TGI,HOP-92 NSCLC,> 100000 nM
same,TGI,HOP-62 NSCLC,52700 nM
same,TGI,U251 CNS,85200 nM
same,TGI,SK-MEL-2 melanoma,89000 nM
same,TGI,CAKI-1 renal,64000 nM
same,TGI,SF-268 CNS,75800 nM
same,TGI,OVCAR-4 ovarian,> 100000 nM
same,TGI,MCF7 breast,77900 nM
same,TGI,PC-3 prostate,> 100000 nM
same,TGI,HCC-2998 colon,59000 nM
same,TGI,KM12 colon,83300 nM
same,TGI,SNB-19 CNS,> 100000 nM
same,TGI,ACHN renal,75600 nM
same,TGI,T-47D breast,> 100000 nM
same,TGI,OVCAR-3 ovarian,42000 nM
same,TGI,TK-10 renal,> 100000 nM
same,TGI,786-0 renal,38000 nM
same,TGI,HL-60(TB) leukemia,> 100000 nM
same,TGI,EKVX NSCLC,59600 nM
same,TGI,M14 melanoma,73900 nM
same,TGI,HS 578T breast,91200 nM
same,TGI,COLO 205 colon,94300 nM
C#CC[C@@H]1C[C@]2(C)[C@H]3CC=C4[C@H]5[C@@H](C)[C@H](C)CC[C@]5(C(=O)NCCCCCCCCN)CC[C@@]4(C)[C@]3(C)CC[C@H]2C(C)(C)[C@H]1OC(C)=O,GI50,K-562 leukemia,2020 nM
same,TGI,K-562 leukemia,5690 nM
same,GI50,OVCAR-8 ovarian,2150 nM
same,TGI,OVCAR-8 ovarian,5010 nM
same,GI50,A498 renal,1780 nM
same,TGI,A498 renal,3210 nM
